This is an account of results in ChEMBL document CHEMBL1201862, “PubChem BioAssay data set” (2004).

Common to all, as to assay: inhibition of tumour cell growth, NCI panel, 48 h
The test system of assay [1] is OVCAR-5.
Assay [2] concerns T47D.
Assay [3] concerns HCT-15.
For assay [4], the system named is UACC-257.
Assay [5] has as its system MDA-N.
In assay [6] the test system is SF-539.
Assay [7] has as its system SN12C.
For assay [8], the system named is NCI-H23.
Assay [9] deals with OVCAR-3.
The test system of assay [10] is K562.
Assay [11] deals with SW-620.
Assay [12] relates to MDA-MB-231.
For assay [13], the system named is Hs-578T.
The subject of assay [14] is UACC-62.
For assay [15], the system named is SK-MEL-2.
Assay [16] deals with A498.
Assay [17] deals with TK-10.
The subject of assay [18] is MCF7.
The subject of assay [19] is SF-295.
Assay [20] concerns HCC 2998.

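Where inhibition never reached the appropriate level, the endpoint shown equals the highest concentration tested. Otherwise, values were interpolated linearly from a five-concentration, 48-hour dose response in 96-well plates. Here, GI50 denotes the concentration required for 50% inhibition of growth.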 The source made the active and inactive calls. Cut-off read from the data, not from the text of the source: active = GI50 up to about 1.1 µM and inactive = higher.

On to `O=[N+]([O-])c1ccc(-c2cn(-c3ccc(Cl)cc3)cn2)cc1`, for which the GI50 in [1] is > 100 µM (inactive); in assay [2], 44.2 µM (inactive); in assay [3], > 100 µM; in [4], > 100 µM (inactive); in assay [5], > 100 µM (inactive); in assay [6], 3.8 µM (inactive). The GI50 in assay [7] is 41.3 µM (inactive); in [8] it was 20.4 µM (inactive); in assay [9], 19.1 µM (inactive); in assay [10], > 100 µM (inactive); in [11], > 100 µM (inactive); in assay [12] it was 27.2 µM (inactive). For the same compound, the GI50 in [13] is 41.6 µM (inactive); in assay [14], 92 µM (inactive); in assay [15], > 100 µM (inactive); in [16], 40.7 µM (inactive); in [17], 40.3 µM (inactive); in assay [18] it was 71.6 µM (inactive). Moreover, the GI50 was 18.7 µM (inactive) in assay [19] and > 100 µM (inactive) in [20].
`O=C1CC(Sc2nc3ccc(I)cc3c(=O)n2Cc2ccccc2)C(=O)NN1` (stereo not given): the GI50 is 17.9 µM (inactive) in assay [1]; 15.2 µM (inactive) in assay [2]; 15.5 µM in assay [3]; 18.3 µM (inactive) in assay [4]; 18 µM (inactive) in assay [5]; 18.2 µM (inactive) in assay [6]. For the same compound, the GI50 in [7] is 14.5 µM (inactive); in [8] it was 15.7 µM (inactive); in assay [9] it was 16 µM (inactive); in assay [10], 11.6 µM (inactive); in [11], 18 µM (inactive); in assay [12], 15.6 µM (inactive). Further, the GI50 in [13] is 18.5 µM (inactive); in assay [14], 15.3 µM (inactive); in [15] it was 17.1 µM (inactive); in assay [16], 12.7 µM (inactive); in assay [17] it was 16.8 µM (inactive); in assay [18] it was 15 µM (inactive). The GI50 was 18.2 µM (inactive) in [19] and 17.6 µM (inactive) in assay [20].
In the case of `C=C[C@]1(C)CC(O)C2C(=C)C(=O)OC2[C@H]1C(=C)C=O` (stereo not given in full), the GI50 was 10.8 µM (inactive) in assay [1]; 3.15 µM (inactive) in assay [2]; 2.06 µM in [3]; 1.57 µM (inactive) in assay [4]; 3.92 µM (inactive) in assay [5]; 3.29 µM (inactive) in assay [6]. Also, the GI50 in assay [7] is 2.37 µM (inactive); in assay [8] it was 2.68 µM (inactive); in [9], 2.67 µM (inactive); in [10] it was 2.52 µM (inactive); in assay [11], 1.44 µM (inactive); in assay [12], 3.1 µM (inactive). The GI50 in assay [13] is 14.4 µM (inactive); in [14], 1.79 µM (inactive); in assay [15], 3.5 µM (inactive); in assay [16], 4.42 µM (inactive); in [17], 3.94 µM (inactive); in assay [18], 1.09 µM (active). Further, the GI50 in assay [19] is 10.6 µM (inactive); in [20], 14.1 µM (inactive).
For the compound `NC(=O)c1ccc(N)nc1` [6-AMINONICOTINAMIDE], the GI50 in assay [1] was > 322 µM (inactive); in assay [2], > 255 µM (inactive); in [3] it was 17.5 µM; in assay [4], 0.986 µM (active); in [5] it was 14.3 µM (inactive); in assay [6], 8.43 µM (inactive). Besides, the GI50 was 15.9 µM (inactive) in [7]; 9.98 µM (inactive) in assay [8]; 67.8 µM (inactive) in [9]; 16.7 µM (inactive) in assay [10]; 82 µM (inactive) in assay [11]; 39.4 µM (inactive) in assay [12]. In addition, the GI50 was 6.17 µM (inactive) in assay [13]; 16.1 µM (inactive) in assay [14]; 124 µM (inactive) in assay [15]; 14.9 µM (inactive) in [16]; > 400 µM (inactive) in assay [17]; 0.389 µM (active) in assay [18]. The GI50 in assay [19] was 5.07 µM (inactive); in assay [20], 31.5 µM (inactive).
In the case of `CC(=O)OC(C)(C)/C=C/C(=O)[C@](C)(O)[C@H]1[C@H](O)C[C@@]2(C)[C@@H]3CC=C4[C@@H](C=C(O)C(=O)C4(C)C)[C@]3(C)C(=O)C[C@]12C` [CUCURBITACIN E], the GI50 in [1] is 0.186 µM (active); in assay [2] it was 0.217 µM (active); in assay [3], 0.0278 µM; in assay [4], 0.0385 µM (active); in assay [5], 0.0518 µM (active); in assay [6], 0.023 µM (active). Also, the GI50 in assay [7] was 0.0394 µM (active); in assay [8], 0.055 µM (active); in assay [9] it was 0.0459 µM (active); in [10] it was 0.0681 µM (active); in assay [11], 0.0438 µM (active); in assay [12], 0.0537 µM (active). The GI50 in assay [13] was 0.0473 µM (active); in assay [14], 0.065 µM (active); in assay [15], 0.0139 µM (active); in assay [16], 0.0247 µM (active); in assay [17] it was 0.0479 µM (active); in assay [18], 0.054 µM (active). Also, the figures for the GI50 in [19] and in assay [20] were 0.0348 µM (active) and 0.0501 µM (active), respectively.
For the compound `O=P(O)(NCCCl)NCCCl` [PALIFOSFAMIDE], the GI50 in [1] is > 10 µM (inactive); in assay [2], > 100 µM (inactive); in [3], > 10 µM; in [4], > 10 µM (inactive); in assay [5], > 100 µM (inactive); in assay [6], 52.5 µM (inactive). The GI50 in assay [7] was 63 µM (inactive); in [8], 64.6 µM (inactive); in [9], > 10 µM (inactive); in assay [10], > 100 µM (inactive); in [11] it was > 10 µM (inactive); in assay [12], > 100 µM (inactive). For the same compound, the GI50 in assay [13] is > 100 µM (inactive); in [14], 38.6 µM (inactive); in [15], > 100 µM (inactive); in [16], > 100 µM (inactive); in assay [17] it was > 10 µM (inactive); in [18], > 100 µM (inactive). The figures for the GI50 in [19] and in assay [20] were 54.1 µM (inactive) and > 100 µM (inactive), respectively.
